Results published in patent US8178658B2 (Dow AgroSciences, LLC, priority 2008, dated 2012).
Read-outs that look alike come from different tables or passages of the source.

Columns and labels:
[1] = system: beet armyworm (BAW; Spodoptera exigua: Lepidoptera); assay: 128-well diet tray assay on beet armyworm (BAW 50); type: in vivo; conditions: for pest or weed control at 50 µg/cm2, 50 µg/cm2: Spodoptera exigua, 144 h, read-out: BAW 50 ug/cm2
How it was run: (§1)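 Two diet formats. HTS: eggs on 96-well diet overlaid with 12 μg compound, held 6 d at 29° C in dark, mean mortality of six replicates. BAW 50: three to five second-instar larvae per well on diet dosed at 50 μg/cm^2, held six days at 25° C under 14:10 light-dark, mortality averaged across eight wells.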

[2] = system: beet armyworm (BAW; Spodoptera exigua: Lepidoptera); assay: 96-well microtiter plate-based high throughput (HTS) diet bioassay on beet armyworm (BAW HTS); type: in vivo; conditions: for pest or weed control at 12 µg/well, 12 µg/well: Spodoptera exigua, 144 h, read-out: BAW HTS
How it was run: as §1

[3] = 128-well diet tray assay, 50 μg/cm^2 of test compound on diet, second instar BAW larvae, mortality class
[4] = 96-well HTS diet bioassay, BAW eggs, 12 μg test compound per well, mortality at 6 d post-treatment, mortality class
[5] = 96-well microtiter plate HTS diet assay, 12 μg test compound per well, BAW eggs, mortality at 6 d post-treatment, mortality class
[6] = 96-well HTS diet assay, BAW eggs, 12 μg test compound per well, mortality at 6 d post-treatment, mortality class

Structure (SMILES) | BAW 50 ug/cm2 [1, 3] | BAW HTS [2, 4] | BAW HTS [2, 5] | BAW HTS [2, 6] | pest or weed control at 50 µg/cm2, 50 µg/cm2 [1] [%] | pest or weed control at 12 µg/well, 12 µg/well [2] [%] | pest or weed control at 50 µg/cm2, 50 µg/cm2 ([1]; 128-well diet tray assay, second instar BAW larvae, 50 μg/cm^2 of test compound on diet, mortality class) [%] | pest or weed control at 12 µg/well, 12 µg/well [2, 6] [%]
CCOC1C(OC)C(C)OC(ON=Cc2ccc(-c3ncn(-c4ccc(C(F)(F)F)cn4)n3)cc2)C1OC (centres unmarked) [Compound 116] | A (the compound was tested and at least 50 percent mortality was observed) | B (either (1) the compound was tested and less than 50 percent mortality was observed or (2) the compound was not tested) | B (either (1) the compound was tested and less than 50 percent mortality was observed or (2) the compound was not tested) |  |  |  |  | 
C=CCO[C@@H]1[C@@H](OC)[C@H](C)O[C@@H](OC(=O)Nc2ccc(-c3ncn(-c4ccc(OC(F)(F)C(F)(F)F)cc4)n3)cc2)[C@@H]1OC [Compound 204] | A (the compound was tested and at least 50 percent mortality was observed) |  | A (the compound was tested and at least 50 percent mortality was observed) | A (the compound was tested and at least 50 percent mortality was observed) |  |  |  | 
COC1C(C)OC(ON=Cc2ccc(-c3csc(-c4ccc(C(F)(F)F)cc4)n3)cc2)C(OC)C1OC (centres unmarked) [Compound 65] | A (the compound was tested and at least 50 percent mortality was observed) | A (the compound was tested and at least 50 percent mortality was observed) | A (the compound was tested and at least 50 percent mortality was observed) |  |  |  |  | 
CCOC1C(OC)C(C)OC(ON=Cc2ccc(-c3ncc(-c4ccccc4C)cn3)cc2)C1OC (centres unmarked) [Compound 152] | A (the compound was tested and at least 50 percent mortality was observed) |  | B (either (1) the compound was tested and less than 50 percent mortality was observed or (2) the compound was not tested) | B (either (1) the compound was tested and less than 50 percent mortality was observed or (2) the compound was not tested) |  |  |  | 
CCO[C@@H]1[C@@H](OC)[C@H](C)O[C@@H](OC(=O)Nc2ccc(C3=NCC(c4ccc(OC(F)(F)F)cc4)O3)cc2)[C@@H]1OC (some centres unmarked) [Compound 185] | B (either (1) the compound was tested and less than 50 percent mortality was observed or (2) the compound was not tested) |  | B (either (1) the compound was tested and less than 50 percent mortality was observed or (2) the compound was not tested) | B (either (1) the compound was tested and less than 50 percent mortality was observed or (2) the compound was not tested) |  |  |  | 
COC1C(C)OC(ON=Cc2ccc(-c3ccn(-c4ccc(OC(F)(F)C(F)(F)F)cc4)n3)cc2)C(OC)C1OC (centres unmarked) [Compound 8] | A (the compound was tested and at least 50 percent mortality was observed) | B (either (1) the compound was tested and less than 50 percent mortality was observed or (2) the compound was not tested) | B (either (1) the compound was tested and less than 50 percent mortality was observed or (2) the compound was not tested) |  |  |  |  | 
COC1C(C)OC(ON=C(C)c2ccc(Cl)c(-c3cn(-c4ccc(OC(F)(F)F)cc4)cn3)c2)C(OC)C1OC (centres unmarked) [Compound 167] | A (the compound was tested and at least 50 percent mortality was observed) |  | B (either (1) the compound was tested and less than 50 percent mortality was observed or (2) the compound was not tested) | B (either (1) the compound was tested and less than 50 percent mortality was observed or (2) the compound was not tested) |  |  |  | 
CCO[C@@H]1[C@@H](OC)[C@H](C)O[C@@H](OC(=O)Nc2ccc(C3=NN(c4ccc(OC(F)(F)F)cc4)CC3)cc2)[C@@H]1OC [Compound 178] | A (the compound was tested and at least 50 percent mortality was observed) |  | B (either (1) the compound was tested and less than 50 percent mortality was observed or (2) the compound was not tested) | B (either (1) the compound was tested and less than 50 percent mortality was observed or (2) the compound was not tested) |  |  |  | 
COC1C(C)OC(ON=Cc2ccc(-c3cn(-c4cc(I)ccn4)cn3)cc2)C(OC)C1OC (centres unmarked) [Compound 23] | B (either (1) the compound was tested and less than 50 percent mortality was observed or (2) the compound was not tested) | B (either (1) the compound was tested and less than 50 percent mortality was observed or (2) the compound was not tested) | B (either (1) the compound was tested and less than 50 percent mortality was observed or (2) the compound was not tested) |  |  |  |  | 
COC1C(C)OC(ON=Cc2ccc(-c3ccn(-c4ccc(C(C)(C)C)cc4)n3)cc2)C(OC)C1OC (centres unmarked) [Compound 11] | A (the compound was tested and at least 50 percent mortality was observed) | B (either (1) the compound was tested and less than 50 percent mortality was observed or (2) the compound was not tested) | B (either (1) the compound was tested and less than 50 percent mortality was observed or (2) the compound was not tested) |  |  |  |  | 
COC1C(C)OC(ON=Cc2ccc(-c3ncnc(-c4ccc(C(F)(F)F)cc4)n3)cc2)C(OC)C1OC (centres unmarked) [Compound 157] | B (either (1) the compound was tested and less than 50 percent mortality was observed or (2) the compound was not tested) |  | A (the compound was tested and at least 50 percent mortality was observed) | A (the compound was tested and at least 50 percent mortality was observed) |  |  |  | 
CCOC1C(OC)C(C)OC(ON=Cc2ccc(-c3ncn(-c4ccc([N+](=O)[O-])cc4)n3)cc2)C1OC (centres unmarked) [Compound 127] | A (the compound was tested and at least 50 percent mortality was observed) | B (either (1) the compound was tested and less than 50 percent mortality was observed or (2) the compound was not tested) | B (either (1) the compound was tested and less than 50 percent mortality was observed or (2) the compound was not tested) |  |  |  |  | 
CCCOC1C(OC)C(C)OC(ON=Cc2ccc(-c3ncn(-c4ccc(C(F)(F)F)cn4)n3)cc2)C1OC (centres unmarked) [Compound 118] | A (the compound was tested and at least 50 percent mortality was observed) | B (either (1) the compound was tested and less than 50 percent mortality was observed or (2) the compound was not tested) | B (either (1) the compound was tested and less than 50 percent mortality was observed or (2) the compound was not tested) |  |  |  |  | 
CCOC1C(OC)C(C)OC(ON=Cc2ccc(-c3ncn(-c4ccc(OC(F)(F)C(F)(F)F)cc4)n3)cc2)C1OC (centres unmarked) [Compound 93] | A (the compound was tested and at least 50 percent mortality was observed) | A (the compound was tested and at least 50 percent mortality was observed) | A (the compound was tested and at least 50 percent mortality was observed) |  |  |  |  | 
CCO[C@@H]1[C@@H](OC)[C@H](C)O[C@@H](OC(=O)Nc2ccc(N3CC(=O)N(c4ccc(OC(F)(F)C(F)(F)F)cc4)CC3=O)cc2)[C@@H]1OC [Compound 243] | B (either (1) the compound was tested and less than 50 percent mortality was observed or (2) the compound was not tested) |  | B (either (1) the compound was tested and less than 50 percent mortality was observed or (2) the compound was not tested) | B (either (1) the compound was tested and less than 50 percent mortality was observed or (2) the compound was not tested) |  |  |  | 
COc1ccc(-n2cc(-c3ccc(C=NOC4OC(C)C(OC)C(OC)C4OC)cc3)nn2)cc1 (centres unmarked) [Compound 77] | B (either (1) the compound was tested and less than 50 percent mortality was observed or (2) the compound was not tested) | B (either (1) the compound was tested and less than 50 percent mortality was observed or (2) the compound was not tested) | B (either (1) the compound was tested and less than 50 percent mortality was observed or (2) the compound was not tested) |  |  |  |  | 
CCO[C@@H]1[C@@H](OC)[C@H](C)O[C@@H](SC(=O)Nc2ccc(-c3cn(-c4ccc(OC(F)(F)F)cc4)cn3)cc2)[C@@H]1OC [Compound 177] | B (either (1) the compound was tested and less than 50 percent mortality was observed or (2) the compound was not tested) |  | A (the compound was tested and at least 50 percent mortality was observed) |  | < 50 | > 50 |  | 
COC1C(C)OC(ON=Cc2ccc(-c3ccn(-c4ccc(OC(F)(F)C(F)F)cc4)n3)cc2)C(OC)C1OC (centres unmarked) [Compound 7] | A (the compound was tested and at least 50 percent mortality was observed) | B (either (1) the compound was tested and less than 50 percent mortality was observed or (2) the compound was not tested) | B (either (1) the compound was tested and less than 50 percent mortality was observed or (2) the compound was not tested) |  |  |  |  | 
CO[C@@H]1[C@@H](OC)[C@H](C)O[C@@H](ONC(=O)c2ccc(-c3cn(-c4ccc(OC(F)(F)F)cc4)cn3)cc2)[C@@H]1OC [Compound 171, 4-[1-(4-trifluoromethoxyphenyl)-1H-imidazol-4-yl]-N-((2S,3R,4R,5S,6S)-3,4,5-trimethoxy-6-methyl-tetrahydropyran-2-yloxy)-benzamide] | A (the compound was tested and at least 50 percent mortality was observed) |  | A (the compound was tested and at least 50 percent mortality was observed) |  |  |  | > 50 | > 50
